Article PMC12389269, “Heteroaryl-Capped Hydroxamic Acid Derivatives with Varied Linkers: Synthesis and Anticancer Evaluation with Various Apoptosis Analyses in Breast Cancer Cells, Including Docking, Simulation, DFT, and ADMET Studies” (Pharmaceuticals, 2025)

Experiments:
MCF-7 cells = assay: Apoptosis assay, annexin V/PI flow cytometry; type: cell-based, human; details: 24 h
Procedure: Qualitative analysis of different stages of apoptosis in MCF-7 cells using AO/EtBr dual staining was further quantitatively validated using annexin V/PI staining. Annexin V binds with the exposed phosphatidyl serine of apoptotic cells in a calcium-dependent manner and permits the determination of a number of cells in different stages of apoptosis. At the same time, PI binds with the nucleic acid of dead cells. In brief, cells were plated in a 6-well cell culture plate followed by exposure to lower, IC50, and higher concentrations of compound VI(i), as described in the above experiments. Following 24 h of incubation, treated cells were harvested using […] EDTA; then, annexin V/PI staining was performed, which was incubated for 30 min at 37 °C. The population of the apoptotic cells was examined by evaluating the cell suspension using a flow cytometer.

HDAC6 = molecular target: T1, HDAC6 (Homo sapiens, UniProt Q9UBN7); assay: HDAC inhibition assay (color de lys ELISA kit), HDAC6; type: biochemical; details: HeLa nuclear extract as source of HDAC activity
T1 construct: The HeLa nuclear extract was used as a source of HDAC activity; host or cells: HeLa (nuclear extract / cells)
T1 sequence (Q9UBN7 1-1215): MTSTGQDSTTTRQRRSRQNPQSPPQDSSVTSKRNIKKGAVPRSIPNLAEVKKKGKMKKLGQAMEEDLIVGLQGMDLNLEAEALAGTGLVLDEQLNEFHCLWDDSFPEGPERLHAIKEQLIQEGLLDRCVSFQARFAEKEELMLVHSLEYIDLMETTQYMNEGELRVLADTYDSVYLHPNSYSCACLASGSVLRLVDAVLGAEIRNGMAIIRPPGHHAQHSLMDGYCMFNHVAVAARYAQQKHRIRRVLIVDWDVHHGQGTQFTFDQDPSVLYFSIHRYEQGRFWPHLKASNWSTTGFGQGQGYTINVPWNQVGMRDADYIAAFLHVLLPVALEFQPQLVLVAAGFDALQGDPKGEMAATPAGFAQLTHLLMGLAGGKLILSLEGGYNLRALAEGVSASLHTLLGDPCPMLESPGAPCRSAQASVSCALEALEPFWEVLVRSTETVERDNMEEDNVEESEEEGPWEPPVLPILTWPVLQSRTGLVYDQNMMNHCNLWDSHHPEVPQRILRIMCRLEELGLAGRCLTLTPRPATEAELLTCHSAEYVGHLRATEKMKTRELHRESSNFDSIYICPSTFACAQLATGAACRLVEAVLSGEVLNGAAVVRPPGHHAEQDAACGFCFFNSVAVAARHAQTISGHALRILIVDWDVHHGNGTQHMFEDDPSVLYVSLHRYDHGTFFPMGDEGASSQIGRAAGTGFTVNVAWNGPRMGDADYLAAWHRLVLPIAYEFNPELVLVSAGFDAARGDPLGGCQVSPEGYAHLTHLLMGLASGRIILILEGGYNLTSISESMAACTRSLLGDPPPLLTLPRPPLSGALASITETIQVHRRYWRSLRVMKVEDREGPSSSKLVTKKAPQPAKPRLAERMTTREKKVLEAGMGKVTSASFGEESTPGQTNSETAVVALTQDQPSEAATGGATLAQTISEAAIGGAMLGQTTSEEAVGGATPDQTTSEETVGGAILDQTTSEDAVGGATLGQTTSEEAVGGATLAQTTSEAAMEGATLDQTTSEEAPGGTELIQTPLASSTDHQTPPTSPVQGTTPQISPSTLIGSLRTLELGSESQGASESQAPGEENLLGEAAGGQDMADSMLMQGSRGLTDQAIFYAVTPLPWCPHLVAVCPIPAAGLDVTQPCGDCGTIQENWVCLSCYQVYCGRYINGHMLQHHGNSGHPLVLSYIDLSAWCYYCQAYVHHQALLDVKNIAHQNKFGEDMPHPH
Procedure: SAHA served as the assay’s positive control. The HeLa nuclear extract was used as a source of HDAC activity. The trypsinized HeLa cells were tallied, put into 96-well microtiter plates, and nurtured. Samples and the standard were placed in wells at a concentration of 100 µL. The culture environment was maintained as per the procedure. 3,3′,5,5′-tetramethylbenzidine (TMB) was included for visualization. Finally, 50 µL of halt solution was smeared. The samples and different SAHA concentrations (0.01, 0.1, 1, 10 μM) were introduced to the appropriate well and left for 72 h. BioTek Epoch (Winooski, VT, USA) microplate reader was used to quantify optical density at 450 nm. The Graph Pad Prism 5 helped to determine the IC50 values.

[1] = system: A-549 (Human Lung Cancer Cell Line); assay: SRB antiproliferative assay, A-549; type: cell-based; details: Homo sapiens, A549, A-549, 48 h, read-out: GI50
Procedure: Following an extensive review of the literature, we selected human breast cancer (MCF-7, MDA-MB-231) and lung cancer (A549) cell lines to evaluate the anticancer potential of the synthesized compounds, and some compounds with good anti-proliferation activity were again tested to evaluate their cytotoxic potential on A-549, MCF-7, and MDA-MB-231. The same were also tested on one non-cancerous/normal (HEK-293) cell line. All the cell lines for the required screening were developed in a suitable medium comprising 10% FBS and 2mM L-glutamine. Cancerous and non-cancerous/normal cell lines were selected for the cell proliferation and cytotoxicity assay and maintained with 5% CO2 at 37 °C in a CO2 incubator with 100% relative humidity for one complete day before the addition of experimental drugs.
Antiproliferative activity through an SRB assay was performed for all the synthesized compounds on A-549 and MCF-7 cell lines. Around 5000 cells/well were quarantined into a 96-well microtiter plate in 100 μL. The synthesized compounds were solubilized in DMSO and diluted to different concentrations before use. The final-drug-concentration aliquots were poured into microtiter wells, and the plates were incubated for 48 h in regular conditions. After adding the final drug concentration, the cells were allowed to set in place and incubated for 60 min. A total of 50 µL of SRB solution (0.4% w/v) in 1% CH3COOH was poured into each well. The plates were then incubated for 20 min at RT. During subsequent staining, the unbounded dye was removed, and the plate reader recorded the eluted bound stain at 540 nm with a 690 nm reference wavelength. The assay was performed precisely using the appropriate reagents and reaction situation, as per the reported procedure. ADR was selected as the reference drug.

[2] = MCF-7, IC50 concentration (60 µg/mL)
[3] = MCF-7, lower concentration (40 µg/mL)

IC50 (HDAC6): 13.4 µM | GI50 [1]: < 10 µg/mL
Compound: COc1ccc(-c2cnn(CCCCCC(=O)NO)n2)cc1 [VI(i), N-Hydroxy-6-(4-(4-methoxyphenyl)-2H-1,2,3-triazol-2-yl)hexanamide]
increment in early apoptotic cell population with respect to control (MCF-7 cells; [2]): 9.58% | increment in late apoptotic cell population with respect to control (MCF-7 cells; [2]): 12.6% | increment in early apoptotic cell population with respect to control (MCF-7 cells; [3]): 5.61% | increment in late apoptotic cell population with respect to control (MCF-7 cells; [3]): 4.14%
